# Target: T1, Human cRaf1 (Homo sapiens, UniProt P04049)
# T1 construct: poly-histidine (C); made in house
# Assay: Raf kinase assay (cRaf1 assay / Raf/MEK cascade assay)
# Assay type: biochemical
# Conditions: Table 3; read-out: Raf Kinase activity
row,Compound,IC50
1,"CN(C)CCN(C)S(=O)(=O)c1ccc2c(c1)C(=Cc1cc(Br)c(O)c(Br)c1)C(=O)N2 [Example 36, 3-(3,5-Dibromo-4-hydroxy-benzylidene)-2-oxo-2,3-dihydro-1H-indol-5-sulfonic acid (N-2-dimethylamino-ethyl)-N-methyl-amide]",< 1 µM
2,"COc1cc(C=C2C(=O)Nc3ccccc32)cc(Br)c1O [Example 46, 3-(3-Bromo-4-hydroxy-5-methoxy-benzylidene)-1,3-dihydro-indol-2-one]",< 1 µM
3,"N#Cc1ccccc1-c1ccc2c(c1)C(=Cc1cc(Br)c(O)c(Br)c1)C(=O)N2 [Example 178, 2-3-[(3,5 Dibromo-4-hydroxyphenyl)methylidene]-2-oxo-2,3-dihydro-1H-indol-5-ylbenzonitrile]",< 1 µM
4,"O=C1Nc2ccc(C(=O)C3CC3)cc2C1=Cc1cc(Br)c(O)c(Br)c1 [Example 24, 5-Cyclopropanecarbonyl-3-(3,5-dibromo-4-hydroxy-benzylidene)-1,3-dihydro-indol-2-one]",< 1 µM
5,"O=C1Nc2ccc(Cl)cc2C1=Cc1cc([N+](=O)[O-])c(O)c([N+](=O)[O-])c1 [Example 52, 5-Chloro-3-(3,5-dinitro-4-hydroxy-benzylidene)-1,3-dihydro-indol-2-one]",< 1 µM
6,"5-{2-[N-Benzyl-N-(2-hydroxy-acetyl)-amino]-ethyl}-3-(3,5-dibromo-4-hydroxy-benzylidene)-1,3-dihydro-indol-2-one [Example 78]",< 1 µM
7,"3-(3-Bromo-4-hydroxy-5-ethoxy-benzylidene)-5-(2-dimethylamino-acetyl)-1,3-dihydro-indol-2-one [Example 111]",< 1 µM
8,"O=C1Nc2ccc(I)cc2C1=Cc1cc(Br)c(OC(=O)N2CCOCC2)c(Br)c1 [Example 151, 2,6-Dibromo-4-[(5-iodo-2-oxo-1,2-dihydro-3H-indol-3-ylidene)methyl]phenyl 4-morpholinecarboxylate]",10 to 100 µM
9,"CN(C)c1nc(-c2ccc3c(c2)C(=Cc2cc(Br)c(O)c(Br)c2)C(=O)N3)cs1 [Example 173, 3-[(3,5-Dibromo-4-hydroxyphenyl)methylidene]-5-[2-(dimethylamino)-1,3-thiazol-4-yl]-1,3-dihydro-2H-indol-2-one]",< 1 µM
10,"O=C1Nc2ccc(-c3cnco3)cc2C1=Cc1cc(Br)c(O)c(Br)c1 [Example 18, 3-(3,4-Dibromo-4-hydroxy-benzylidene)-5-(oxazol-5-yl)-1,3-dihydro-indol-2-one]",< 1 µM
11,"COc1cc(C=C2C(=O)Nc3ccccc32)cc(I)c1O [Example 102, 3-(4-Hydroxy-3-iodo-5-methoxy-benzylidene)-1,3-dihydro-indol-2-one]",1 to 10 µM
12,"O=C1Nc2ccc(C(=O)O)cc2C1=Cc1cc(Br)c(O)c(Br)c1 [Example 156, 3-(3,5-Dibromo-4-hydroxy-benzylidene)-2-oxo-2,3-dihydro-1H-indol-5-carboxylic acid]",< 1 µM
13,O=C1Nc2ccc(C(=O)CN3CCSCC3)cc2C1=Cc1cc(Br)c(O)c(Br)c1 [Example 72],< 1 µM
14,"O=C1Nc2ccc(C(=NO)c3ccccc3)cc2C1=Cc1cc(Br)c(O)c(Br)c1 [Example 97, 3-(3,5-Dibromo-4-hydroxy-benzylidene)-5-((hydroxyimino)-phenyl-methyl)-1,3-dihydro-indol-2-one]",< 1 µM
15,"CN(C)c1ccc2c(c1)C(=Cc1cc(Br)c(O)c(Br)c1)C(=O)N2 [Example 163, 3-[(3,5-Dibromo-4-hydroxyphenyl)methylidene]-5-(dimethylamino)-1,3-dihydro-2H-indol-2-one]",< 1 µM
16,"O=C1Nc2ccc(C(=O)CN(CCO)CCO)cc2C1=Cc1cc(Br)c(O)c(Br)c1 [Example 74, 5-{2-[Bis-(2-hydroxy-ethyl)-amino]-acetyl}-3-(3,5-dibromo-4-hydroxy-benzylidene)-1,3-dihydro-indol-2-one]",< 1 µM
17,"CC(=O)c1ccc2c(c1)C(=Cc1cc(Cl)c(O)c(Cl)c1)C(=O)N2 [Example 90, 5-Acetyl-3-(3,5-dichloro-4-hydroxy-benzylidene)-1,3-dihydro-indol-2-one]",< 1 µM
18,"O=C1Nc2ccc(-c3ccccc3)cc2C1=Cc1cc(Br)c(O)c(Br)c1 [Example 92, 3-(3,5-Dibromo-4-hydroxy-benzylidene)-5-phenyl-1,3-dihydro-indol-2-one]",< 1 µM
19,"O=C1Nc2ccc([N+](=O)[O-])cc2C1=Cc1cc(Br)c(O)c(Br)c1 [Example 63, 3-(3,5-Dibromo-4-hydroxy-benzylidene)-5-nitro-1,3-dihydro-indol-2-one]",< 1 µM
20,CC(C)CC(=O)c1ccc2c(c1)C(=Cc1cc(Cl)c(O)c(Cl)c1)C(=O)N2 [Example 9],< 1 µM
21,"O=C1Nc2ccc(Cl)cc2C1=Cc1cc(I)c(O)c(I)c1 [Example 55, 5-Chloro-3-(3,5-diiodo-4-hydroxy-benzylidene)-1,3-dihydro-indol-2-one]",< 1 µM
22,"O=C1Nc2ccc(-c3csc(-c4ccccc4)n3)cc2C1=Cc1cc(Cl)c(O)c(Cl)c1 [Example 124, 3-(3,5-Dichloro-4-hydroxy-benzylidene)-5-(2-phenyl-thiazol-4-yl)-1,3-dihydro-indol-2-one]",< 1 µM
23,O=C1Nc2ccc(C(=O)CN3CCOCC3)cc2C1=Cc1cc(Br)c(O)c(Br)c1 [Example 73],< 1 µM

row,Compound,IC50
1,"CC(C)Oc1ccc2c(c1)NC(=O)C2=Cc1cc(Br)c(O)c(Br)c1 [Example 113, 3-(3,5-Dibromo-4-hydroxy-benzylidene)-6-isopropoxy-1,3-dihydro-indol-2-one]",1 to 10 µM
2,"COc1cc(C=C2C(=O)Nc3ccc(I)cc32)cc([N+](=O)[O-])c1O [Example 104, 3-(4-Hydroxy-3-methoxy-5-nitro-benzylidene)-5-iodo-1,3-dihydro-indol-2-one]",< 1 µM
3,"CN(C)CCCNc1nc(-c2ccc3c(c2)C(=Cc2cc(Br)c(O)c(Br)c2)C(=O)N3)cs1 [Example 180, 3-[(3,5-Dibromo-4-hydroxyphenyl)methylidene]-5-(2-[3-(dimethylamino)propyl]amino-1,3-thiazol-4-yl)-1,3-dihydro-2H-indol-2-one]",< 1 µM
4,"O=C1Nc2ccc([N+](=O)[O-])cc2C1=Cc1cc(Cl)c(O)c(Cl)c1 [Example 65, 3-(3,5-Dichloro-4-hydroxy-benzylidene)-5-nitro-1,3-dihydro-indol-2-one]",< 1 µM
5,"O=C1Nc2ccc(Br)cc2C1=Cc1cc(Br)c(O)c(Br)c1 [Example 81, 5-Bromo-3-(3,5-dibromo-4-hydroxy-benzylidene)-1,3-dihydro-indol-2-one]",< 1 µM
6,"O=C1Nc2ccccc2C1=Cc1cc(Br)c(O)c(Br)c1 [Example 28, 3-(3,5-Dibromo-4-hydroxy-benzylidene)-1,3-dihydro-indol-2-one]",1 to 10 µM
7,"O=C1Nc2ccc(C(=O)c3ccc([N+](=O)[O-])cc3)cc2C1=Cc1cc(Br)c(O)c(Br)c1 [Example 95, 3-(3,5-Dibromo-4-hydroxy-benzylidene)-5-(4-nitro-benzoyl)-1,3-dihydro-indol-2-one]",< 1 µM
8,CN(CCO)CC(=O)c1ccc2c(c1)C(=Cc1cc(Br)c(O)c(Br)c1)C(=O)N2 [Example 75],< 1 µM
9,"O=C1Nc2ccc3[nH]nnc3c2C1=Cc1cc(Br)c(O)c(Br)c1 [Example 132, 8-(3,5-Dibromo-4-hydroxy-benzylidene)-6,8-dihydro-3H-1,2,3,6-tetraaza-as-indacen-7-one]",< 1 µM
10,"O=C(CO)Nc1ccc2c(c1)C(=Cc1cc(Br)c(O)c(Br)c1)C(=O)N2 [Example 160, N-3-[(3,5-Dibromo-4-hydroxyphenyl)methylidene]-2-oxo-2,3-dihydro-1H-indol-5-yl-2-hydroxyacetamide]",< 1 µM
11,"O=C1Nc2ccc(-c3ccccc3)cc2C1=Cc1cc(Cl)c(O)c(Cl)c1 [Example 93, 3-(3,5-Dichloro-4-hydroxy-benzylidene)-5-phenyl-1,3-dihydro-indol-2-one]",< 1 µM
12,O=C1Nc2ccc(C(=O)c3ccco3)cc2C1=Cc1cc(Br)c(O)c(Br)c1 [Example 21],< 1 µM
13,"O=C1Nc2ccc(C(=O)c3ccncc3)cc2C1=Cc1cc(Cl)c(O)c(Cl)c1 [Example 15, 3-(3,5-Dichloro-4-hydroxy-benzylidene)-5-(pyridine-4-carbonyl)-1,3-dihydro-indol-2-one]",< 1 µM
14,O=C1Nc2ccc(C(=O)c3cccnc3)cc2C1=Cc1cc(Br)c(O)c(Br)c1 [Example 11],< 1 µM
15,"O=C1Nc2ccc(C(=O)CN3CCSC3)cc2C1=Cc1cc(Br)c(O)c(Br)c1 [Example 76, 3-(3,5-Dibromo-4-hydroxy-benzylidene)-5-(2-(thiazolidin-3-yl)-acetyl)-1,3-dihydro-indol-2-one]",< 1 µM
16,"O=C1Nc2ccc(C(=O)c3ccno3)cc2C1=Cc1cc(Br)c(O)c(Br)c1 [Example 37, 3-(3,5-Dibromo-4-hydroxy-benzylidene)-5-(isoxazole-5-carbonyl)-1,3-dihydro-indol-2-one]",< 1 µM
17,"CCOc1cc(C=C2C(=O)Nc3ccc([N+](=O)[O-])cc32)cc(Br)c1O [Example 68, 3-(3-Bromo-5-ethoxy-4-hydroxy-benzylidene)-5-nitro-1,3-dihydro-indol-2-one]",< 1 µM
18,CC(=O)Nc1ccc2c(c1)C(=Cc1cc(Br)c(O)c(Br)c1)C(=O)N2 [Example 159],< 1 µM
19,"CCN(CC)S(=O)(=O)c1ccc2c(c1)C(=Cc1cc(Cl)c(O)c(Cl)c1)C(=O)N2 [Example 115, 3-(3,5-Dichloro-4-hydroxy-benzylidene)-2-oxo-2,3-dihydro-1H-indol-5-sulfonic acid diethylamide]",< 1 µM
20,"O=C1Nc2ccc(Br)cc2C1=Cc1cc(I)c(O)c(I)c1 [Example 44, 5-Bromo-3-(3,5-diiodo-4-hydroxy-benzylidene)-1,3-dihydro-indol-2-one]",< 1 µM
21,"COc1cc(C=C2C(=O)Nc3ccccc32)cc(Cl)c1O [Example 49, 3-(3-Chloro-4-hydroxy-5-methoxy-benzylidene)-1,3-dihydro-indol-2-one]",1 to 10 µM
22,"O=C1Nc2ccc(S(=O)(=O)N3CCOCC3)cc2C1=Cc1cc(Cl)c(O)c(Cl)c1 [Example 116, 3-(3,5-Dichloro-4-hydroxy-benzylidene)-5-(morpholine-4-sulfonyl)-1,3-dihydro-indol-2-one]",< 1 µM

# Reference: patent US6268391A, “Benzylidene-1,3-dihydro-indol-2-one derivatives a receptor tyrosine kinase inhibitors, particularly of Raf kinases” (Glaxo Wellcome Inc., priority 1997, dated 2001)
